This passage reports IC50 results from patent US20250179027A1, “CYCLOALKYL OR HETEROCYCLYL SUBSTITUTED HETEROARYL COMPOUND, AND COMPOSITION AND USE THEREOF” (Shenzhen TargetRx, Inc., priority 2022, published 2025).

Some results are limits rather than exact numbers.

The target in one assay is T1, EGFR (Homo sapiens, UniProt P00533).
T1 construct: purchased Carna 08-115
The assay is described as follows: HTRF kinase activity inhibition assay, EGFR. It is filed as biochemical. The note with it: HTRF TK kit. An excerpt: (§1) In this assay, the HTRF TK Kit (Catalog No. 62TKOPEC) provided by Cisbio was used to detect the inhibitory activity of compounds on BTK kinase and BTK C481S kinase and the selectivity of compounds relative to EGFR, ITK and TEC kinases.
(§2) Reagents and consumables: BTK kinase (Invitrogen, Catalog No. PV3587), BTK C481S (Carna, Product No. 08-547), ITK (Carna, Product No. 08-181), EGFR (Carna, Product No. 08-115), TEC (Carna, Product No. 08-182), HTRF-TK kit (Cisbio, Product No. 62TKOPEC), MgCl2 (Sigma, Product No. M1028), MnCl2 (Sigma, Product No. M1787), DTT (Sigma, Product No. D0632), ATP (Sigma, Product No. A7699-1 g), DMSO (Sigma, Product No. D2650), 384-well plate (PE, Product No. 6008280).
(§3) The entire operation steps were carried out on ice, and the total reaction volume was 10 μL. The compound (4 μL), substrate and ATP (4 μL), kinase (2 μL) were added in sequence to a 384-well plate, and shaked for 30 seconds. After an appropriate time at room temperature, the detection reagent was added. After 1 hour at room temperature, the plate was detected with a microplate reader. The specific steps were as follows: • a) 1× kinase buffer solution required for kinase detection was calculated according to the amount of the detection compound, and prepared as needed; • b) compounds with 2.5×working concentration were prepared, the 100 times gradient concentration solution of compounds was diluted by 4 μL to the desired concentration, mixed well, and added to each well at 4 μL per well; • c) 5×working concentration of substrate and ATP were prepared, mixed in a ratio of 1:1 before adding to a 384-well plate, and added to each well at 4 μL per well; • d) 5×working concentration of kinase was prepared, and 2 μL was added to each well; • e) the plate was shaked on a microplate oscillator for 30 seconds, sealed with a sealing membrane, and reacted at room temperature for an appropriate time; • f) 4×working concentrations of streptavidin XL-665 and TK antibody-cryptate compound were prepared, mixed in a ratio of 1:1 before adding to a 384-well plate, and added to each well at 10 μL per well; • g) the plate was read after reacting at room temperature for 1 hour; • h) the wells with only substrate, ATP and 1% DMSO added but no kinase were blank control wells, and the wells with only substrate, ATP, 1% DMSO and kinase were positive control wells.
(§4) Readings: The values of 620 nm (cryptate) and 665 nm (XL665) were read with a BioTek Synerg Neo2 microplate reader, the ratio of 665/620 per well was calculated, and the data were exported. Data analysis: IC50 was calculated using GraphPad Prism 7.0 software. The following nonlinear fitting formula was used to obtain the IC50 (half inhibitory concentration) of compounds:
(§5) [formula] • X: Compound concentration log value • Y: Inhibition rate (% inhibition)
(§6) The kinase inhibition rate (% inhibition rate) was calculated as: […]
(In general: In TR-FRET formats the signal depends on donor and acceptor labels being close together.)

The target in a further assay is T2, ITK (Homo sapiens, UniProt Q08881).
T2 construct: purchased Carna 08-181
T2 sequence (Q08881 1-620): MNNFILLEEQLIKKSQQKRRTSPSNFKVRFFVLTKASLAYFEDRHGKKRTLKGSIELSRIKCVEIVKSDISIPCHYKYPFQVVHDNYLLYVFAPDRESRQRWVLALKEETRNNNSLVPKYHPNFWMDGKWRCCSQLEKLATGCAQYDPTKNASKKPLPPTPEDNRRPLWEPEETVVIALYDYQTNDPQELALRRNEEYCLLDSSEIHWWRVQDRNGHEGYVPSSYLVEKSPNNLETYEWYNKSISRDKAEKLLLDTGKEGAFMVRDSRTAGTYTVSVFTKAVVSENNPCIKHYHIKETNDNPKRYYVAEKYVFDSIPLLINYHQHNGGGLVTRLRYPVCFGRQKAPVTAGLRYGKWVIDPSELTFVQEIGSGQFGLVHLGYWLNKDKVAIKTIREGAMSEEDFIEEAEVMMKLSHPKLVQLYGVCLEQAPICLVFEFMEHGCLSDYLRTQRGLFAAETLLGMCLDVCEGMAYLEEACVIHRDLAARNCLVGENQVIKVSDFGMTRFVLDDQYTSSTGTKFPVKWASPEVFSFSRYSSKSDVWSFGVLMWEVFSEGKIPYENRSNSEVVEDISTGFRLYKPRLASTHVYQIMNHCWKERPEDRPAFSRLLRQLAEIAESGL
In words: HTRF kinase activity inhibition assay, ITK. It is filed as biochemical. The conditions noted are these: HTRF TK kit.
From the text: as §1, §2, §3, §4, §5, §6

For another assay, the target named is T3, TEC (Homo sapiens, UniProt P42680).
T3 construct: purchased Carna 08-182
T3 sequence (P42680 1-631): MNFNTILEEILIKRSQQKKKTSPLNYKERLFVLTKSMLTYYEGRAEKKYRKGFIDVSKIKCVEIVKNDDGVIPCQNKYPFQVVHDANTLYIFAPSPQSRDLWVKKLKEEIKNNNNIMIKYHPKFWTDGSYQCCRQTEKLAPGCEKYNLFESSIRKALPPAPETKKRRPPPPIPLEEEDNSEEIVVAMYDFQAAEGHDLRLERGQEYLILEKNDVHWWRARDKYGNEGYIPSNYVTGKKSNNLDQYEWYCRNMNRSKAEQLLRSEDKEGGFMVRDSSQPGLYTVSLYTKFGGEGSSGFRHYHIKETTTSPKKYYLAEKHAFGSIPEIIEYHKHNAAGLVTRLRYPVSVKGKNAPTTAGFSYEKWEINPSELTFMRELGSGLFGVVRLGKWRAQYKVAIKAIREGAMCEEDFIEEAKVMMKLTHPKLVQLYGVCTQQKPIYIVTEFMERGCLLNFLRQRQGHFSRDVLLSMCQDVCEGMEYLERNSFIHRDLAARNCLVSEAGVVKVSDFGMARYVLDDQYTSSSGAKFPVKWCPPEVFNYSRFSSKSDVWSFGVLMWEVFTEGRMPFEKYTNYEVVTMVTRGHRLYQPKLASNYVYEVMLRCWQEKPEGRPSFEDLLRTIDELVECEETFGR
In words: HTRF kinase activity inhibition assay, TEC. The conditions noted are these: HTRF TK kit. It is filed as biochemical.
From the text: as §1, §2, §3, §4, §5, §6

The target in the next assay is T4, BTK kinase (Homo sapiens, UniProt Q06187).
T4 construct: purchased Invitrogen PV3587
T4 sequence (Q06187 whole entry): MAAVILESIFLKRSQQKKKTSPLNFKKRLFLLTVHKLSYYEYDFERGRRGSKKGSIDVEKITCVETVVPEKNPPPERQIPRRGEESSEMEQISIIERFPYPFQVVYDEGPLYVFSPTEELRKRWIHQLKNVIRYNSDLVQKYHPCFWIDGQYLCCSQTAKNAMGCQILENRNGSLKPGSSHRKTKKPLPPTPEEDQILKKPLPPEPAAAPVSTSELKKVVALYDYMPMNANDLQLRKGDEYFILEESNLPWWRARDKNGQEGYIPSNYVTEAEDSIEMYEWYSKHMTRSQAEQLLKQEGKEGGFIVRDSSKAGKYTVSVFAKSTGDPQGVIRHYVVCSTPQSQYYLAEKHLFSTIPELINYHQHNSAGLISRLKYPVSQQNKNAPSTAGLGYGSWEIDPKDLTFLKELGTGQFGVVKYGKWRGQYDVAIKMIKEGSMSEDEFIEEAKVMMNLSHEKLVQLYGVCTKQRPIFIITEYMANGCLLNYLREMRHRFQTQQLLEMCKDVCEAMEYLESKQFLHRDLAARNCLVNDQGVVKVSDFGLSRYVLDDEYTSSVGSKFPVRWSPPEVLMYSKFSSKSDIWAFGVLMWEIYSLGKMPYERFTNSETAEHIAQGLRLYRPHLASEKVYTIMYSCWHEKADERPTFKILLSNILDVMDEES
In words: HTRF kinase activity inhibition assay, BTK. Type of assay: biochemical. The conditions noted are these: HTRF TK kit.
From the text: as §1, §2, §3, §4, §5, §6

The target of assay [1] is T5, phosphorylated BTK Y223 in NIH/3T3 BTK WT cells (Homo sapiens, UniProt Q06187).
T5 construct: expressed in transfected cells; host or cells: NIH/3T3 (mouse fibroblasts) engineered to express BTK WT
T5 sequence (Q06187 whole entry): as above
In words: Phosphor-BTK(Y223) assay, NIH/3T3 BTK WT cells. It is filed as cell-based. The note with it: phosphorylated BTK Y223, NIH/3T3 BTK WT cells; read-out: NIH/3T3 BTK-WT pBTK IC50. As to the method: The purpose of this assay is to simply, quickly and directly detect the endogenous level of BTK in cells. The specific assay steps are as follows: Day 1: NIH/3T3 BTK WT cells (7.5 k/well) and NIH/3T3 BTK C481S cells (10 k/well) were plated in 96-well plates, respectively, and cultured overnight at 37° C. and 5% CO2.
• 1. A 3-fold final concentration gradient dilution of the compound was prepared, and 50 μL was added to 100 μL of cell culture; 0.5% DMSO was used as a positive control for cell growth. • 2. The plate was incubated at 37° C., 5% CO2 for 0.5 h. • 3. Na3VO4 with a final concentration of 1 mM was added, and incubated at 37° C. and 5% CO2 for 2 hours. • 4. During the incubation, the following reagents were prepared: 1× added lysis buffer: 3 vol ddH2O+1 vol 4× lysis buffer+100× blocking reagent. p-BTK (Y223) cryptate-antibody and p-BTK (Y223) d2-antibody working solutions: 1 volume of each cryopreserved antibody (stored at −20° C.) was added to 19 times volumes of assay buffer (stored at 4° C.). • 5. After the incubation, the medium was removed and 50 μL of 1× added lysis buffer was added; The mixture was centrifuged at 500 rpm for 30 min at room temperature. • 6. The lysate was mixed well and 16 μL was transferred to a 384-well plate; 1× added lysis buffer was used as a blank control. • 7. 4 μL of pre-mixed working solutions of the two antibodies (cryptate Ab:d2 Ab=1:1) were added and the plate was sealed. • 8. The plate was incubated overnight at room temperature.
Biotek cytation3.0 microplate reader was used to read the plate at 665 nm and 620 nm, and the ratio of 665/620 nm per well was calculated.
IC50 was calculated using GraphPad Prism 7.0 software.
The following nonlinear fitting formula was used to obtain the phosphorylated BTK Y223 IC50 (half phosphorylation inhibitory concentration) of the compounds:
as §5
The formula for calculating cell phosphorylation inhibition rate (% inhibition rate) was: […]

T1 sequence (P00533 669-1210 limits assumed): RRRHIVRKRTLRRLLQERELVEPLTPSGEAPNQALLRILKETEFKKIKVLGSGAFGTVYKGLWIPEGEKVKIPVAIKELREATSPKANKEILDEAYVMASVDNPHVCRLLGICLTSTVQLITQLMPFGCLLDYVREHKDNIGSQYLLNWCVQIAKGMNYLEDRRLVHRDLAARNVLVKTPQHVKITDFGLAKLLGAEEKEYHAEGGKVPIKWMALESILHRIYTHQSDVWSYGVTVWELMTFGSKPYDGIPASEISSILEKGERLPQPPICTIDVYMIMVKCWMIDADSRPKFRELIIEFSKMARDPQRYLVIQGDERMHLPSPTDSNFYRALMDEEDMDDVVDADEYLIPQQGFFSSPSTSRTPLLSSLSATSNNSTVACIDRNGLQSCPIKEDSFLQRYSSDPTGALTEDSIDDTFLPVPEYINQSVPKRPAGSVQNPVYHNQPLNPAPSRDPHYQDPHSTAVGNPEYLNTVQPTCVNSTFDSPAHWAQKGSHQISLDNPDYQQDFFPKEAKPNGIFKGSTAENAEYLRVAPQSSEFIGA

In the case of `COc1ccc(F)cc1C(=O)NCc1ccc(-c2nn(C3CCC(O)C3)c3ncnc(N)c23)cc1` (single isomer, unassigned) [Example 35, N-(4-(4-amino-1-(3-hydroxycyclopentanyl)-1H-pyrazolo[3,4-d]pyrimidin-3-yl)benzyl)-5-fluoro-2-methoxybenzamide], the IC50 on EGFR is 50 to 100 nM; on ITK, above 10000 nM; at TEC, 100 to 1000 nM; at BTK kinase it was at most 10 nM; in assay [1], at most 25 nM.
As for `COc1ccc(F)cc1C(=O)NCc1ccc(-c2nn(C3CCC(O)C3)c3ncnc(N)c23)cc1` (single isomer, unassigned) [Example 34, N-(4-(4-amino-1-(3-hydroxycyclopentanyl)-1H-pyrazolo[3,4-d]pyrimidin-3-yl)benzyl)-5-fluoro-2-methoxybenzamide], the IC50 on EGFR is 50 to 100 nM; at ITK, above 10000 nM; on TEC, 100 to 1000 nM; on BTK kinase, at most 10 nM; in assay [1], at most 25 nM.
With `COc1ccc(F)cc1C(=O)NCc1ccc(-c2nn(C3CCC(O)C3)c3ncnc(N)c23)cc1` (single isomer, unassigned) [Example 33, N-(4-(4-amino-1-(3-hydroxycyclopentanyl)-1H-pyrazolo[3,4-d]pyrimidin-3-yl)benzyl)-5-fluoro-2-methoxybenzamide], the IC50 was 50 to 100 nM at EGFR; above 10000 nM at ITK; 100 to 1000 nM on TEC; at most 10 nM at BTK kinase; at most 25 nM in assay [1].
As to `COc1ccc(F)cc1C(=O)NCc1ccc(-c2nn(C3CCC(O)C3)c3ncnc(N)c23)cc1` (single isomer, unassigned) [Example 36, N-(4-(4-amino-1-(3-hydroxycyclopentanyl)-1H-pyrazolo[3,4-d]pyrimidin-3-yl)benzyl)-5-fluoro-2-methoxybenzamide], the IC50 at EGFR is 1000 to 10000 nM; at ITK, above 10000 nM; at TEC it was 100 to 1000 nM; at BTK kinase, at most 10 nM; in assay [1], at most 25 nM.
